# Key:
# [1] = system: Gram-positive bacterial strains; parameters: method as in doi:10.14419/ijac.v5i1.7155; details: mainly Gram-positive bacterial strains; cited from earlier work
# [2] = system: Candida albicans ATCC 2091; assay: Broth microdilution MIC/MFC; format: cell-based; details: for MFC: ATCC2091, read-out: MFC; for MIC: ATCC2091, read-out: MIC
# How it was run: (§1)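 Two-fold dilutions in RPMI 1640 with MOPS (fungi) or Mueller-Hinton broth (bacteria), final 1000–0.488 µg/mL, inoculum 0.5 McFarland in 0.85% NaCl. MIC read spectrophotometrically; MBC/MFC as lowest concentration with no visible growth after well contents were spotted onto agar.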
# [3] = system: Candida parapsilosis ATCC 22019; assay: Broth microdilution MIC/MFC; format: cell-based; details: Lodderomyces parapsilosis; for MFC: ATCC22019, read-out: MFC; for MIC: ATCC22019, read-out: MIC
# How it was run: as §1
# [4] = system: Candida albicans ATCC 10231; assay: Broth microdilution MIC/MFC; format: cell-based; details: for MFC: ATCC10231, read-out: MFC; for MIC: ATCC10231, read-out: MIC
# How it was run: as §1
# [5] = system: Candida glabrata ATCC 90030; assay: Broth microdilution MIC/MFC; format: cell-based; details: Nakaseomyces glabratus; for MFC: ATCC90030, read-out: MFC; for MIC: ATCC90030, read-out: MIC
# How it was run: as §1
# [6] = system: Candida krusei ATCC 14243; assay: Broth microdilution MIC/MFC; format: cell-based; details: Pichia kudriavzevii; for MFC: ATCC14243, read-out: MFC; for MIC: ATCC14243, read-out: MIC
# How it was run: as §1
# [7] = system: Bacillus cereus ATCC 10876; assay: Broth microdilution MIC/MBC; details: Bacillus cereus, ATCC10876
# [8] = system: Escherichia coli ATCC 25922; assay: Broth microdilution MIC/MBC; details: ATCC25922
# [9] = system: Bacillus subtilis ATCC 6633; assay: Broth microdilution MIC/MBC; details: ATCC6633
# [10] = system: Klebsiella pneumoniae ATCC 13883; assay: Broth microdilution MIC/MBC; details: ATCC13883
# [11] = system: Salmonella typhimurium ATCC 14028; assay: Broth microdilution MIC/MBC; details: Salmonella enterica
# [12] = system: Bordetella bronchiseptica ATCC 4617; assay: Broth microdilution MIC/MBC; details: ATCC4617
# [13] = system: Staphylococcus aureus ATCC 29213; assay: Broth microdilution MIC/MBC; details: ATCC29213
# [14] = system: Micrococcus luteus ATCC 10240; assay: Broth microdilution MIC/MBC; details: Micrococcus luteus, ATCC10240
# [15] = system: Staphylococcus aureus ATCC 43300; assay: Broth microdilution MIC/MBC; details: ATCC43300 / MRSA
# [16] = system: Staphylococcus epidermidis ATCC 12228; assay: Broth microdilution MIC/MBC; details: ATCC12228
# [17] = system: Proteus mirabilis ATCC 12453; assay: Broth microdilution MIC/MBC; details: ATCC12453
# [18] = system: Staphylococcus aureus ATCC 25923; assay: Broth microdilution MIC/MBC; details: Staphylococcus aureus, ATCC25923
# [19] = system: Pseudomonas aeruginosa ATCC 9027; assay: Broth microdilution MIC/MBC; details: ATCC9027
# [20] = system: Candida spp.; assay: Broth microdilution, summary over reference yeasts; format: cell-based
# From the text: Procedures of in vitro antimicrobial assays are described in Supplementary Materials.
# 2. Microbiology – in vitro antimicrobial activity assays […]
# using the broth microdilution method according to the European Committee on Antimicrobial Susceptibility Testing (EUCAST) and Clinical and Laboratory Standards Institute guidelines against a panel of reference and clinical or saprophytic strains of mi croorganisms, including the Gram-positive bacteria: Staphylococcus aureus ATCC 43300 (Methi-cillin Resistant S. aureus – MRSA), Staphylococcus aureus ATCC 29213 (Methicillin Susceptible S. aureus – MSSA), Staph-ylococcus epidermidis ATCC 12228, Micrococcus luteus ATCC 10240, Bacillus subtilis ATCC 6633 and Bacillus cereus ATCC 10876), Gram-negative bacteria: Bordetella bronchiseptica ATCC 4617, Escherichia coli ATCC 25922, Klebsiella pneumoniae ATCC 13883, Proteus mirabilis ATCC 12453, Salmonella typhimurium ATCC 14028 and Pseudomonas aeruginosa ATCC 9027, and fungi belonging to yeasts: Candida albicans ATCC 10231, Candida albicans ATCC 2091, Candida parapsilosis ATCC 22019, Candida glabrata ATCC 90030 and Candida krusei ATCC 14243. The microorganisms belonging to ATCC originated from American Type Culture Collection, routinely used for the evaluation of antimicrobials. All the used microbial cultures were first subcultured on nutrient agar or Sabouraud agar at 35°C for 18-24 h or 30°C for 24-48 h for bacteria […]
# The surface of Mueller-Hinton agar (for bacteria) and RPMI 1640 with MOPS (for fungi) were inoculated with the suspensions of bacterial or fungal species. Microbial suspensions were prepared in sterile saline with an optical density of McFarland standard scale 0.5. The samples containing the compounds were dissolved in dimethyl sulfoxide (DMSO).
# Furthermore, the bacterial and fungal suspensions put onto the Petri dishes with solid media containing 2 mg/mL of the tested compounds followed were incubated at 37°C for 24h and 30°C for 48h for bacteria and fungi, respectively.
# The inhibition of microbial growth was estimated comparing with a control culture prepared without any tested sam- […]
# antifungal compounds, respectively.
# Subsequently, MIC (Minimal Inhibitory Concentration) of the compounds was examined by the microdilution broth method, using their two-fold dilutions in Mueller-Hinton broth (for bacteria) and RPMI 1640 broth with MOPS (for fungi) prepared in the 96-well polystyrene plates. The final concentrations of the compounds ranged from 1000 to 0.488 µg/mL. Microbial suspensions were prepared in 0.85% NaCl with an optical density of 0.5 McFarland standard. Next each bacterial or fungal suspension was added per each well containing broth and various concentrations of the exam-ined compounds. After incubation, the MIC was assessed spectrophotometrically as the lowest concentration of the […]
# Appropriate DMSO, growth and sterile controls were carried out. The medium with no tested substances was used as a control The MBC (Minimal Bactericidal Concentration) and MFC (Minimal Fungicidal Concentration) are defined as the lowest concentration of the compounds that is required to kill a particular bacterial or fungal species. The MBC/MFC was determined by removing the culture used for the MIC determination from each well and spotted onto the appro-priate agar medium. The plates were incubated under appropriate conditions for bacteria and fungi. The lowest com-pounds concentration with no visible growth observed was assessed as a bactericidal/fungicidal concentration. All the experiments were repeated three times and the representative data are presented.
# 1. European Committee for Antimicrobial Susceptibility Testing (EUCAST) Determination of minimum inhibitory con-centrations (MICs) of antibacterial agents by broth dilution. EUCAST discussion document E. Dis 5.1. Clin. Microbiol.
# 2. Clinical and Laboratory Standards Institute. Reference method for broth dilution antifungal susceptibility testing of […]
# [21] = system: Gram-positive bacteria; assay: Broth microdilution, summary over reference Gram-positive bacteria; format: cell-based; details: reference Gram-positive bacteria / studied bacteria
# How it was run: as §1
# [22] = range over the reference Candida spp. strains
SMILES,MFC [2] [µg/mL],MIC [2] [µg/mL],MFC [3] [µg/mL],MIC [3] [µg/mL],MFC [4] [µg/mL],MIC [4] [µg/mL],MFC [5] [µg/mL],MIC [5] [µg/mL],MFC [6] [µg/mL],MIC [6] [µg/mL],MIC [7] [µg/mL],MIC [8] [µg/mL],MIC [9] [µg/mL],MIC [10] [µg/mL],MIC [11] [µg/mL],MIC [12] [µg/mL],MIC [13] [µg/mL],melting point [°C],MIC [14] [µg/mL],MIC [15] [µg/mL],further results
O=C(NN=Cc1ccc(F)cc1)c1ccccc1 [N-(4-fluorobenzylidene)benzohydrazide],–,–,–,–,–,–,–,–,–,–,–,–,–,–,–,–,–,–,–,–,zone of bacterial growth inhibition ZOI [1]: 6–7 mm
"O=C(N/N=C/c1cc(O)ccc1O)c1ccc(I)cc1 [Compound 26, N-[(2,5-dihydroxyphenyl)methylidene]-4-iodobenzohydrazide]",> 1000,1000,> 1000,250,> 1000,500,> 1000,1000,> 1000,500,> 1000,> 1000,500,> 1000,> 1000,> 1000,> 1000,261 to 265,500,1000,"MBC [9]: > 1000 µg/mL; MBC [14]: > 1000 µg/mL; MBC [15]: > 1000 µg/mL; MBC [16]: > 1000 µg/mL; MIC [16]: 1000 µg/mL; MIC [17]: > 1000 µg/mL; MIC [18]: > 1000 µg/mL; MIC [19]: > 1000 µg/mL; MFC [20, 22]: > 1000 µg/mL; MIC [20, 22]: 250 to 1000 µg/mL"
"O=C(N/N=C/c1cc(Br)cc(Br)c1O)c1ccc(I)cc1 [Compound 28, N-[(3,5-dibromo-2-hydroxyphenyl)methylidene]-4-iodobenzohydrazide]",> 1000,1000,> 1000,500,> 1000,500,> 1000,1000,> 1000,1000,> 1000,> 1000,> 1000,> 1000,> 1000,> 1000,> 1000,210 to 211,> 1000,> 1000,"MIC [16]: > 1000 µg/mL; MIC [17]: > 1000 µg/mL; MIC [18]: > 1000 µg/mL; MIC [19]: > 1000 µg/mL; MFC [20, 22]: > 1000 µg/mL; MIC [20, 22]: 250 to 1000 µg/mL; antibacterial activity in words [21]: No antimicrobial effect"
"O=C(N/N=C/c1cc(O)ccc1O)c1cccc(I)c1 [Compound 19, N-[(2,5-dihydroxyphenyl)methylidene]-3-iodobenzohydrazide]",> 1000,500,> 1000,125,> 1000,250,> 1000,500,> 1000,250,> 1000,> 1000,> 1000,> 1000,> 1000,> 1000,> 1000,220 to 224,> 1000,> 1000,"MIC [16]: > 1000 µg/mL; MIC [17]: > 1000 µg/mL; MIC [18]: > 1000 µg/mL; MIC [19]: > 1000 µg/mL; MFC/MIC [20, 22]: > 4; MIC [20, 22]: 125 to 500 µg/mL; antifungal activity in words ([20]; reference yeasts from Candida spp.): good and moderate; antibacterial activity in words [21]: no activity"

# Reference: paper PMC11356900, “Synthesis, Structural Properties and Biological Activities of Novel Hydrazones of 2-, 3-, 4-Iodobenzoic Acid” (Molecules, 2024)
